Molecules are shown by their SMILES. The source made the active and inactive calls. No rule for the calls is given here.

The subject of one test is Mycobacterium tuberculosis replicating growth, CFU imaging. In words: replicating M. tuberculosis growth inhibition, dose response, imaging, dry powder (AID 743404).
Conditions: not given
Regarding `Cn1c(NC(=O)c2ccccc2)nc2cc(C#N)ccc21`, the AC90 was > 100 µM (inactive).

Turning to `Cn1c(NC(=O)c2cccnc2)nc2ccccc21`, the AC90 is 99.8 µM. Regarding `CN1CCN(c2ccc(C(=O)Nc3nc4ccccc4n3C)cc2)CC1`, the AC90 was > 100 µM (inactive). In the case of `CCN(CC)CCn1c(NC(=O)c2ccccc2)nc2ccccc21`, the AC90 was 102 µM.

Turning to `Cn1c(N)nc2ccccc21`, the AC90 was > 50 µM (inactive). On the same count and under the same terms, in the case of `Cn1c(NC(=O)c2ccccc2)nc2c3ncccc3ccc21` it was 10.6 µM; in that of `Cn1c(N2CCN(C(=O)c3ccccc3)CC2)nc2ccccc21`, > 100 µM (inactive). Turning to `Cn1c(NC(=O)c2ccc(N3CCCCC3)cc2)nc2ccccc21`, the AC90 was > 100 µM (inactive). For `Cn1c(NC(=O)c2ccccc2)nc2c3nccnc3ccc21`, the AC90 was 63.9 µM. On to `Cn1c(NC(=O)c2ccccc2)nc2c3ccncc3ccc21`, for which the AC90 is 18.4 µM. `Cn1c(NC(=O)c2ccccc2)nc2c(C#N)cccc21`: the AC90 is > 100 µM (inactive). `Cn1c(NC(=O)c2ccccc2)nc2c3cnccc3ccc21`: the AC90 is 14.4 µM. On the same count and under the same terms, in the case of `Cc1ccccc1C(=O)Nc1nc2ccccc2n1C` it was > 100 µM (inactive). On the same count and under the same terms, in the case of `Cn1c(NC(=O)c2ccccc2)nc2c(Cl)cccc21` it was > 100 µM (inactive); in that of `CO[C@H]1/C=C/O[C@@]2(C)Oc3c(C)c(O)c4c(O)c(c(C=NN5CCN(C)CC5)c(O)c4c3C2=O)NC(=O)/C(C)=C\C=C\[C@H](C)[C@H](O)[C@@H](C)[C@@H](O)[C@@H](C)[C@H](OC(C)=O)[C@@H]1C`, 6.43 µM; in that of `O=C(Nc1nc2ccccc2n1C1CCCCC1)c1ccccc1`, > 100 µM (inactive).

Test system in another test: not listed separately
The test is described as above. The conditions noted are these: Mycobacterium tuberculosis replicating growth, CFU imaging; at 50 µM (top of the series).
Turning to `O=C(Nc1nc2ccccc2n1-c1ccccc1)c1ccccc1`, the activity change, negative = inhibition was -7.02% (inactive).

Still in this test, the particulars now being: Mycobacterium tuberculosis replicating growth, CFU imaging; at 100 µM (top of the series).
In the case of `Cn1c(NC(=O)c2ccccc2)nc2cc(Cl)ccc21`, the activity change, negative = inhibition is -6.62% (inactive). As for `Cn1c(NC(=O)c2ccc(N3CCOCC3)cc2)nc2ccccc21`, the activity change, negative = inhibition was -9.12% (inactive). For the compound `COCCn1c(NC(=O)c2ccccc2)nc2ccccc21`, the activity change, negative = inhibition was -13.8% (inactive). Still for that read-out and setting: next, `Cn1c(NC(=O)c2ccc(N3CCOC3=O)cc2)nc2ccccc21`: 3.62% (inactive); `COc1ccc2c(c1)nc(NC(=O)c1ccccc1)n2C`: -10.1% (inactive). Take `Cn1c(NC(=O)c2ccccc2C(F)(F)F)nc2ccccc21`: the activity change, negative = inhibition was -8.14% (inactive). For the compound `Cn1c(NC(=O)c2ccccc2)nc2cc(F)ccc21`, the activity change, negative = inhibition is -9.27% (inactive). Turning to `Cn1c(NC(=O)c2cccs2)nc2ccccc21`, the activity change, negative = inhibition was -15.5% (inactive).

For `COc1cccc(C(=O)Nc2nc3ccccc3n2C)c1`, the activity change, negative = inhibition was -11.3% (inactive). For the compound `Cn1c(NS(=O)(=O)c2ccccc2)nc2ccccc21`, the activity change, negative = inhibition was -4.4% (inactive). The same measure, in the same setting: next, `Cn1c(NC(=O)c2ccc(Oc3ccccc3)cc2)nc2ccccc21`: -18.8% (inactive).

As for `O=C(Nc1nc2ccccc2s1)c1ccccc1`, the activity change, negative = inhibition was -9.11% (inactive). As to `Cn1c(NC(=O)c2ccc(C#N)cc2)nc2ccccc21`, the activity change, negative = inhibition is -1.94% (inactive). Still for that read-out and setting: in the case of `Cn1c(NC(=O)c2ccncc2)nc2ccccc21` it was -9.25% (inactive); in that of `Cn1c(NC(=O)c2ccccc2Cl)nc2ccccc21`, -2.89% (inactive); in that of `Cn1c(NC(=O)c2ccno2)nc2ccccc21`, -5.54% (inactive). `Cn1c(NC(=O)c2ccc3ncoc3c2)nc2ccccc21`: the activity change, negative = inhibition is 1.4% (inactive). Take `Cn1c(NC(=O)c2ccccc2)nc2cc(C(F)(F)F)ccc21`: the activity change, negative = inhibition is -1.86% (inactive). As to `Cn1c(NC(=O)c2ccc(OC(F)(F)F)cc2)nc2ccccc21`, the activity change, negative = inhibition is 1.97% (inactive). Same read-out and setting: next, `COc1ccc(C(=O)Nc2nc3ccccc3n2C)cc1OC`: -3.35% (inactive). Take `O=C(Nc1nc2ccccc2n1Cc1ccccc1)c1ccccc1`: the activity change, negative = inhibition is 3.29% (inactive). For the compound `Cn1c(NC(=O)c2ccccc2)nc2cccc(Cl)c21`, the activity change, negative = inhibition is -2% (inactive). Still for that read-out and setting: next, `Cn1c(NC(=O)c2ccc(Cl)c(Cl)c2)nc2ccccc21`: 0.098% (inactive).

Consider `Cn1c(NC(=O)c2ccccc2)nc2ccc(C#N)cc21`, for which the activity change, negative = inhibition was 4.9% (inactive). Consider `Cn1c(NC(=O)c2ccccc2)nc2cccnc21`, for which the activity change, negative = inhibition was -6.96% (inactive). Consider `Cn1c(NC(=O)c2cccc(C(F)(F)F)c2)nc2ccccc21`, for which the activity change, negative = inhibition was -12.4% (inactive). On to `Cn1c(NC(=O)c2ccc(F)c(F)c2)nc2ccccc21`, for which the activity change, negative = inhibition was 1.94% (inactive).

In the case of `COc1ccc(C(=O)Nc2nc3ccccc3n2C)cc1`, the activity change, negative = inhibition was -7.64% (inactive). In the case of `Cn1c(C(=O)Nc2ccccc2)nc2ccccc21`, the activity change, negative = inhibition is -11.4% (inactive).

Consider `Cc1cc(C(=O)Nc2nc3ccccc3n2C)on1`, for which the activity change, negative = inhibition was -7.86% (inactive). `CC(C)n1c(NC(=O)c2ccccc2)nc2ccccc21`: the activity change, negative = inhibition is -7.84% (inactive).

On to `Cn1c(NC(=O)c2nc3ccccc3s2)nc2ccccc21`, for which the activity change, negative = inhibition was 3.65% (inactive). Same read-out and setting: next, `Cn1c(NC(=O)c2ccc(-n3ccnn3)cc2)nc2ccccc21`: 0.752% (inactive).

As to `CN(C(=O)c1ccccc1)c1nc2ccccc2n1C`, the activity change, negative = inhibition is -7.26% (inactive). For the compound `Cn1c(NC(=O)c2ccccc2)nc2ccc(F)cc21`, the activity change, negative = inhibition was -13% (inactive). Regarding `O=C(Nc1nc2ccccc2n1C1CC1)c1ccccc1`, the activity change, negative = inhibition is -6.92% (inactive). `O=C(Nc1nc2ccccc2n1CCN1CCOCC1)c1ccccc1`: the activity change, negative = inhibition is -5.41% (inactive). Regarding `Cc1ccc2c(c1)nc(NC(=O)c1ccccc1)n2C`, the activity change, negative = inhibition is -14.6% (inactive). For the compound `Cn1c(NC(=O)c2ccc(-c3nccs3)cc2)nc2ccccc21`, the activity change, negative = inhibition was 1.95% (inactive).

Consider `O=C(Nc1nc2ccccc2[nH]1)c1ccccc1`, for which the activity change, negative = inhibition was 1.93% (inactive). In the case of `Cn1c(NC(=O)c2ccc(-c3ncco3)cc2)nc2ccccc21`, the activity change, negative = inhibition is -1.55% (inactive). As for `Cn1c(NC(=O)Cc2ccccc2)nc2ccccc21`, the activity change, negative = inhibition was -15.4% (inactive). For `COc1cccc2c1nc(NC(=O)c1ccccc1)n2C`, the activity change, negative = inhibition is -17.3% (inactive). In the case of `Cn1c(NC(=O)c2ccccc2)nc2ccc3ncccc3c21`, the activity change, negative = inhibition was -10.6% (inactive). Consider `Cn1c(NC(=O)Nc2ccccc2)nc2ccccc21`, for which the activity change, negative = inhibition was -16.1% (inactive).

With `CC(=O)Nc1nc2ccccc2n1C`, the activity change, negative = inhibition was -2.24% (inactive). For the compound `CC(C)Oc1ccc(C(=O)Nc2nc3ccccc3n2C)cc1`, the activity change, negative = inhibition is -8.59% (inactive). With `COc1ccccc1C(=O)Nc1nc2ccccc2n1C`, the activity change, negative = inhibition is -18% (inactive).

(Values after PubChem BioAssay AID743404 (Broad Institute, 2014).)
